Reference: paper PMC5487351, “Galactosylsphingamides: new α-GalCer analogues to probe the F’-pocket of CD1d” (Scientific Reports, 2017)

Target: T1, mCD1d (mCD1-β2M) (Mus musculus, UniProt P11609)
T1 construct: gene Cd1d1; soluble CD1d ectodomain with beta2-microglobulin, insect cells; glycolipid-loaded; with Beta-2-microglobulin
T1 sequence (P11609 19-297): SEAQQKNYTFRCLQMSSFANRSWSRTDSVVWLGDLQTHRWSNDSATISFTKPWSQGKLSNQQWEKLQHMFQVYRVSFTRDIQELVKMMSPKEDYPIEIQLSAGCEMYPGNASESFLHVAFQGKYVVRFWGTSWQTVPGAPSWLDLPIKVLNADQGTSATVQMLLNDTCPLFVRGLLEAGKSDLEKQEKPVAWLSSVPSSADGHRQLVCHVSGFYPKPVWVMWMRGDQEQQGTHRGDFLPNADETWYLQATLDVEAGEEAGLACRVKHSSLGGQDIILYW
T1 sequence (P01887 21-119 partner): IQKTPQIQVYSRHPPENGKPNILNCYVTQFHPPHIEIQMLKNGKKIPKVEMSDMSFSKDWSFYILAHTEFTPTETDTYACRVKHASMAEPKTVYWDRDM
Assay: X-ray crystal structure, […] Å
Conditions: CD1d binding groove (A' and F' pockets); spacer lipid in A' pocket

## CCCCCCCC(=O)N[C@@H](CO[C@H]1O[C@H](CO)[C@H](O)[C@H](O)[C@H]1O)[C@H](O)[C@H](O)CCCC(=O)NCCCCCCc1ccccc1 [5d, (5R,6S,7S)-5,6-dihydroxy-8-O-(α-D-galactopyranosyl)-7-octanamido-N-(6-phenylhexyl)octanamide]
  X-ray crystal structure, 1.75 Å: we determined the crystal structure of the CD1d/5d-complex
